Measurements taken from patent publication US10549052B2, “Nasal delivery device” (SIPNOSE LTD., priority 2012, dated 2020).
Where two headings read alike, the source gives them in different places.

Columns and labels:
[1] = Micro-PET-CT tissue absorption of F-DOPA, SipNose nasal application versus I/V administration; settings: rat
Experimental: The objective of the experiment was to compare nasal application with SipNose device to a systemic application by IV administration of F-DOPA (that corresponds to the drug L-DOPA) by means of brain absorption (namely the target tissue) and systemic absorption (namely non relevant tissues contamination).
• Animals were anesthetized with a Ketamine-Xylazine cocktail. • Animals were treated according to the 2 groups as below: • 1. Systemic administration of F-DOPA by I/V injection of 1 ml. Administration doses were between 17 and 83 μg, and injected radioactivity dose was around 1000 μCi. • 2. Nasal application of F-DOPA by SipNose device application of 13-20 μl. Administration doses were between 1.2 and 2.8 μg, and injected radioactivity doses were around 26 μCi. All I/V administered animals and part of the Nasal applied animals (as will be indicated) were pre-treated with 10 mg/kg Carbidopa (by IP administration) 30 min prior to L-DOPA administration to eliminate peripheral conversion to dopamine. • Animals were subjected to Micro-PET-CT. PET scans were done for 45 min following L-DOPA administration by I/V or Nasal route. • Analysis of F-DOPA absorption in the following tissues was tested: • Brain, Heart, Lungs, liver.

[2] = Experimental: Brain uptake of a compound with low blood-brain barrier (BBB) penetration ^11C-choline, was applied by the device of the present application (refers also as SipNose). 33.2 μCi/5.3 μmol (approx. 0.551 mg) of ^11C-choline was applied by the device of the present application to a 381 gm rat. A 45 min. dynamic PET scan was performed followed by a CT scan.
It should be noted that in the above mentioned examples, the compressed gas is in volumes of about 15 ml and compressed to about 7 bar.
Comparison of brain uptake of a compound with low blood-brain barrier (BBB) penetration, when applied to the nasal cavity with the device of the present application to deposition in the respiratory epithelium in the nasal cavity.
It should be noted that in the above mentioned examples, the compressed gas is in volumes of about 5 ml and compressed to about 4 bar.
Comparison of brain uptake of a compound with low blood-brain barrier (BBB) penetration, when applied with the present device versus intravenous (I/V) injection.
The data shown are the average of three trials for the present device, and the average of two trials for each of the I/V administration and the general nasal administration. The bar heights are relative to the brain concentration of ^11C choline after I/V administration.

[3] = Dye deposition in the olfactory epithelium following application with the present device; format: in vivo; settings: rat, 15 microliter to one nostril with the present device, post mortem (FIG. 31B)
Description: Methylene Blue solution (as in Example 1) was applied to the rat nose with the present device. 15 microliter was applied to one nostril and immediately after that the animal was sacrificed and the nasal and brain tissue were exposed to follow the dye deposition.

[4] = rat, injected intravenously (I/V)
[5] = rat, via the present device (FIG. 41)

N[C@@H](Cc1cc(O)c(O)cc1F)C(=O)O [F-Dopa, F-DOPA]
SipNose nasal application with versus without Carbidopa pre-treatment ([1]; 10 mg/kg Carbidopa IP 30 min prior): same results whether a pre-treatment with Carbidopa was given or not | brain concentrations, SipNose nasal application versus I/V ([1]; 22.5 min post treatment (t50 of the PET scan)): comparable | peripheral uptake compared to brain uptake ([1]; nasal application, heart, lungs, liver): lower peripheral concentrations than the brain F-Dopa concentrations | percentage of absorption in peripheral tissues relative to brain absorption, nasal versus I/V ([1]; heart, lungs, liver): lower in the nasal treated animals than in the I/V treated animals

C[N+](C)(C)CCO [^11C-choline]
location of deposition in the nasal cavity ([2]; live rat, PET-CT scan, present device (FIG. 31A)): concentrated at the olfactory epithelium | brain uptake with the present device relative to I/V application ([2]; rat, FIG. 38B versus FIG. 37B): more than 6 times | uptake to the brain ([2]; rat, I/V injection (FIG. 39)): less than 0.2 % of the administered dose | uptake to the brain ([2]; rat, SipNose nasal application, about 15 ml gas at about 7 bar, increasing gradually thereafter, 45 min dynamic PET scan): 0.6 % ID/ml | uptake to the brain ([2]; rat, SipNose nasal application, about 15 ml gas at about 7 bar, very shortly following administration): about 0.5 % ID/ml | brain uptake as share of the total drug administrated ([2]; rat, SipNose nasal application, corresponds to the % ID/ml values): ~1.2% | uptake entering the brain ([2]; rat, applied with the present device (FIG. 38B)): more than 0.5 % ID/ml | locations of uptake ([2]; rat, applied with the present device (SipNose)): greatest in the olfactory epithelium and least in the lungs | locations of uptake ([2]; rat, applied with the present device (SipNose), listed as 11C choline): mainly to the olfactory epithelium | brain concentration relative to I/V administration ([2]; rat, general nasal application, average of two trials (FIG. 40)): the same or slightly more | locations of uptake [2, 4]: mostly to the liver | uptake to the brain [2, 4]: about 0.1 % ID/ml | uptake of the radioactivity in the brain ([2]; rat, nasal application tuned to respiratory epithelium (about 5 ml, about 4 bar), no olfactory deposition, 45 minutes after activation): less than 0.1% | uptake of the radioactivity in the pharynx ([2]; rat, nasal application tuned to respiratory epithelium (about 5 ml, about 4 bar), less than a minute after activation): more than 0.4% | brain concentration relative to I/V administration ([2]; rat, present SipNose device, average of three trials (FIG. 40)): more than five times as great | uptake to the brain ([2]; rat, present device (FIG. 39)): more than 1 % of the administered dose | net uptake to non-olfactory brain tissues [2, 5]: about 2.5 μg | total uptake to the brain [2, 5]: ~6 µg | uptake to the olfactory bulbs [2, 5]: about 3 μg

CN(C)c1ccc2nc3ccc(=[N+](C)C)cc-3sc2c1 [Methylene Blue]
location of dye deposition in the nasal cavity [3]: concentrated at the olfactory epithelium
